According to US10035801B2, “Pyrazolo compounds and uses thereof” (CONSTELLATION PHARMACEUTICALS, INC., priority 2013, dated 2018):

Experiments:
Assay type in all cases: biochemical
PLU-1 = target: T1, PLU-1 (Homo sapiens, UniProt Q9UGL1); assay: PLU-1 demethylase assay on H3K4Me3 peptide (RapidFire HT-MS)
T1 construct: FLAG tagged full length recombinant JARID1A and PLU1 proteins were purified from Sf9 insect cells; FLAG; made in house; host or cells: Sf9 insect cells
Protocol: (§1) FLAG tagged full length recombinant JARID1A and PLU1 proteins were purified from Sf9 insect cells to near homogeneity. The demethylation reaction buffer contained 50 mM TrisCl pH 7.5, 0.01% Triton X-100, 0.005% BSA, 1 mM ascorbate (Cat# A4034, Sigma Aldrich), 1.7 μM α-ketoglutarate (# K2010, Sigma Aldrich) and 20 μM Fe2(NH4)2(SO4)2 (Cat# F1543, Sigma Aldrich). In a 25 μL demethylation reaction system, 20 nM recombinant JARID1A or PLU1 proteins and 4 μM H3K4me3 peptide (1-21 aa), which can be biotinylated or unlabelled, were incubated with compounds for 10 minutes, and then α-ketoglutarate and Fe2(NH4)2(SO4)2 were added to initiate the reaction. All of the reactions were incubated for 45 minutes at room temperature, and then 25 μl of 1 N HCl was added to quench the reactions. After termination, plates were sealed and frozen at −80° C. for analysis.
(§2) All the reactions were read by RapidFire™ HT-MS platform developed in BioCius Inc, and described in detail (Assay and Drug Development Technologies, 2004; 2(4): 373-381). Briefly, plates were thawed and immediately analyzed using RapidFire™ system coupled to a Sciex API4000 triple quadrapole mass spectrometer. The samples were delivered directly from the plate to a clean-up cartridge (BioCius column A) to remove nonvolatile assay components with 0.1% formic acid in a 3-sec wash cycle. The peptide substrate and demethylated product were coeluted to the mass spectrometer with 80% acetonitrile, 0.1% formic acid. Both the substrate and product signals were read at their +5 charge species, and the conversion from substrate to product assessed by [H3K4me2 Read]/[H3K4me2 Read+H3K4me3 Read].

GASC1 = target: T2, GASC1 (Homo sapiens, UniProt Q9H3R0); assay: GASC1 demethylation assay on H3K9Me3 peptide (RapidFire HT-MS); conditions: read-out: GASC1 Inhibition
T2 construct: 6×His tagged recombinant GASC1 (N 350aa) was purified from E. Coli BL21(DE3); 6xHis; made in house; host or cells: E. coli BL21(DE3)
T2 sequence (Q9H3R0 1-350 limits assumed): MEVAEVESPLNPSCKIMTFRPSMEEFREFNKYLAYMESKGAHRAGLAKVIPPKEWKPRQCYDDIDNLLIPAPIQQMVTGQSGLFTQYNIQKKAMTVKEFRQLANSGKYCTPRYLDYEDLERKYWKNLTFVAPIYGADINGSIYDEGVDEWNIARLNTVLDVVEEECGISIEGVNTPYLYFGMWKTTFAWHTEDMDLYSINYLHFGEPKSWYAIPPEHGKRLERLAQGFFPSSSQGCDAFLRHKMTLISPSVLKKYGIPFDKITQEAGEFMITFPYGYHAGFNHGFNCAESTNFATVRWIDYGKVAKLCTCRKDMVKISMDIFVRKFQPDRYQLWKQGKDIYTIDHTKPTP
Protocol: 6×His tagged recombinant GASC1 (N 350aa) was purified from E. Coli BL21(DE3) to near homogeneity. The demethylation reaction buffer contained 50 mM TrisCl pH 7.5, 0.01% Triton X-100, 5% glycerol, 1 mM ascorbate (Cat# A4034, Sigma Aldrich), 5 μM α-ketoglutarate (# K2010, Sigma Aldrich) and 20 μM Fe2(NH4)2(SO4)2 (Cat# F1543, Sigma Aldrich). In 25 μL demethylation reaction system, 400 nM recombinant GASC1 and 20 μM H3K9me3 peptide (1-21 aa) were incubated with compounds for 10 minutes, and then α-ketoglutarate and Fe2(NH4)2(SO4)2 were added to initiate the reaction. All of the reactions were incubated for 45 minutes at room temperature, and then 25 μl of 1 N HCl was added to quench the reactions. After termination, plates were sealed and frozen at −80° C. and shipped on dry ice to BioTrove Inc. (Woburn, Mass.) for analysis.
All the reactions were read by RapidFire™ HT-MS platform developed in BioTrove Inc, and the method has been described in detail previously (Assay and Drug Development Technologies, 2004; 2(4): 373-381). Briefly, at BioTrove, plates were thawed and immediately analyzed using RapidFire™ system coupled to a Sciex API4000 triple quadrapole mass spectrometer. The samples were delivered directly from the plate to a clean-up cartridge (BioTrove column A) to remove nonvolatile assay components with 0.1% formic acid in a 3-sec wash cycle. The peptide substrate and demethylated product were coeluted to the mass spectrometer with 80% acetonitrile, 0.1% formic acid. Both the substrate and product signals were read at their +5 charge species, and the conversion from substrate to product is assessed by [H3K9me2 Read]/[H3K9me2 Read+H3K9me3 Read].

JARID1A = target: T3, JARID1A (Homo sapiens, UniProt P29375); assay: JARID1A demethylase assay on H3K4Me3 peptide (RapidFire HT-MS)
T3 construct: FLAG tagged full length recombinant JARID1A and PLU1 proteins were purified from Sf9 insect cells; FLAG; made in house; host or cells: Sf9 insect cells
Protocol: as §1, §2

T1 sequence (Q9UGL1 whole entry): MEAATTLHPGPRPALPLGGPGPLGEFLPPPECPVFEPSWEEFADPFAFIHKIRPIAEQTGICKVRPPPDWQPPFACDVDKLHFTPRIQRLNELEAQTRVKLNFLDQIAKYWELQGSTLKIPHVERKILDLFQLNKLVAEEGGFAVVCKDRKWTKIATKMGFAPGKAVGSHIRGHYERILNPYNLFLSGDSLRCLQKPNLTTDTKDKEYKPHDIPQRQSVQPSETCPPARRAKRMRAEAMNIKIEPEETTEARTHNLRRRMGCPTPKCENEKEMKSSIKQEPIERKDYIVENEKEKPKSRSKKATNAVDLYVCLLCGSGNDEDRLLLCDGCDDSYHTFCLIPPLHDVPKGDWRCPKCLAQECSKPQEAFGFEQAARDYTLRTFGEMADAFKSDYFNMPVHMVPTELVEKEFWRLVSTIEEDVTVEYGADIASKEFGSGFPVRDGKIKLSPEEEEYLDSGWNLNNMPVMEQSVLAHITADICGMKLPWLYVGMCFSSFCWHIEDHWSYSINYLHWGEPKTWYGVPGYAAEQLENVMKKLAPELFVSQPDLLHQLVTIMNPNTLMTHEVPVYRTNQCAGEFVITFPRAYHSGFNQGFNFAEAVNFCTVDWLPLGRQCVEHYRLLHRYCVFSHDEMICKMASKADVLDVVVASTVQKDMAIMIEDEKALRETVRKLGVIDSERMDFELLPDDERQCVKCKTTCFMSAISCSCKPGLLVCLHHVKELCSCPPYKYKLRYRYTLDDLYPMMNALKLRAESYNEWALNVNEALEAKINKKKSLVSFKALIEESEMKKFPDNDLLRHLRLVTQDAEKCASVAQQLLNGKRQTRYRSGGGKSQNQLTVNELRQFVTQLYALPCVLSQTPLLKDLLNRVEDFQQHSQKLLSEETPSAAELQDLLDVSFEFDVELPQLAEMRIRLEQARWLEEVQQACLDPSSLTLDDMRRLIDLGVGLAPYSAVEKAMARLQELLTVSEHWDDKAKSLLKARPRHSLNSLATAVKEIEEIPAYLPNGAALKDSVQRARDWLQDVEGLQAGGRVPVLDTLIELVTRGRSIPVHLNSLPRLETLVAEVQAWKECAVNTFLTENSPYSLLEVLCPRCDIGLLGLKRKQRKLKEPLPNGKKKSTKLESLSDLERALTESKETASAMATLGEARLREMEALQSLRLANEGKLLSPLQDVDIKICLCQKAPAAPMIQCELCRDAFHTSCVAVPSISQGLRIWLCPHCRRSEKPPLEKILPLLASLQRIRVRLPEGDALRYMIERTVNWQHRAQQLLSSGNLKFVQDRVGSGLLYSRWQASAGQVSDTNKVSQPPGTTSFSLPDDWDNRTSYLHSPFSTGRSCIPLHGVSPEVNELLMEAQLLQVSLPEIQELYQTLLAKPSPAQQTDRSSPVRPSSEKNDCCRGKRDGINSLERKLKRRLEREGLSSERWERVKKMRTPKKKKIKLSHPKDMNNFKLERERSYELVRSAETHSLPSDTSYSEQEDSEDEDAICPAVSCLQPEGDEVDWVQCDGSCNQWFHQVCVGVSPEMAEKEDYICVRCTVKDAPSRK
T3 sequence (P29375 whole entry): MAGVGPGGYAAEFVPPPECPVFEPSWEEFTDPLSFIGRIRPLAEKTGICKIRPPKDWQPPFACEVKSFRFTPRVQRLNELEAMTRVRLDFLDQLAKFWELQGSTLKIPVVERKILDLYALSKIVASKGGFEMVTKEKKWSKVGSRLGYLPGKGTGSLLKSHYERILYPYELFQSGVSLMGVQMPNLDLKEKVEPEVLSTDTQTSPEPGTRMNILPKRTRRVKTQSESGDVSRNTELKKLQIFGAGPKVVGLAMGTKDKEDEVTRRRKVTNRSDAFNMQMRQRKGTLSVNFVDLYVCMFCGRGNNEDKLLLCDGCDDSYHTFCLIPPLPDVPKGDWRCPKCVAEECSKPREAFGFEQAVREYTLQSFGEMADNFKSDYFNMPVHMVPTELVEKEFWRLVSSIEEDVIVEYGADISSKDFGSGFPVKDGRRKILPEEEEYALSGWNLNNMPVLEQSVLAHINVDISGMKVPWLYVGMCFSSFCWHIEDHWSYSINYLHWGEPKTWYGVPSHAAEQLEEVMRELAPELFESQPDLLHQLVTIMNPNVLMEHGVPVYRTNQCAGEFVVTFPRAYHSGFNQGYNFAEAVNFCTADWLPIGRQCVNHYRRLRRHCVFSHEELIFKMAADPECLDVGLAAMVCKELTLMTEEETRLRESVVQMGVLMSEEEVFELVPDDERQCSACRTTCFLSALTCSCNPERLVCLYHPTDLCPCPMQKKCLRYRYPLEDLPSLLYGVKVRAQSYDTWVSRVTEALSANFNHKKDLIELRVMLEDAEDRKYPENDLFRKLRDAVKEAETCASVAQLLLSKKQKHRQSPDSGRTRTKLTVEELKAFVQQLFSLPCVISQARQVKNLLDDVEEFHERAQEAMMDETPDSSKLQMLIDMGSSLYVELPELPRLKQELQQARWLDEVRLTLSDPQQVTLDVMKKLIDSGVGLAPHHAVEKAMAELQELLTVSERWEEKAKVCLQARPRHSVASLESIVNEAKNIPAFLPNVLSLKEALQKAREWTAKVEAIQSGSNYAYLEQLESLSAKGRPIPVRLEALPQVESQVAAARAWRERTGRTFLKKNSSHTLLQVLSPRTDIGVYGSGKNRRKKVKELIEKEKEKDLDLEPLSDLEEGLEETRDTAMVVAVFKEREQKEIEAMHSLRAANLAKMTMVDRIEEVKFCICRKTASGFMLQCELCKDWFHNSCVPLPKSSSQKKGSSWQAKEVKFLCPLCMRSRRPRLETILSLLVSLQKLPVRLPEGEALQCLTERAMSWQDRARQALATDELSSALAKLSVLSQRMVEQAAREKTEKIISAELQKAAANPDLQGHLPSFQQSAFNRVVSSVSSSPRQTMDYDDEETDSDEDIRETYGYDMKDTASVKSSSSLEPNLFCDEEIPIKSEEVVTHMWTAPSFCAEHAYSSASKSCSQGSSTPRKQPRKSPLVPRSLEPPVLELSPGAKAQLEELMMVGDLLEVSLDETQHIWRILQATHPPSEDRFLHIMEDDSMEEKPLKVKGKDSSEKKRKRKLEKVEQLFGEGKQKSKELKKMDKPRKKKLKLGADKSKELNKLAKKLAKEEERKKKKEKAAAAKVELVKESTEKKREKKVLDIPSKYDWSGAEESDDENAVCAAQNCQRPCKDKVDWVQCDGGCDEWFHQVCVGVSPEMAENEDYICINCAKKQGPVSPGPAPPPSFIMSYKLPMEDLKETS

Row | Structure (SMILES) | IC50 (PLU-1) [nM] | IC50 (GASC1) [nM] | IC50 (JARID1A) [nM]
1 | CCc1c(CO)[nH]c2c(C#N)cnn2c1=O [Compound I-21] | ≤ 1000 | ≤ 1000 | ≤ 1000
2 | CCc1c(COC)[nH]c2c(C#N)cnn2c1=O [Compound I-23] | ≤ 1000 | 1000 to 10000 | ≤ 1000
3 | CCOC(=O)c1[nH]c2c(C#N)cnn2c(=O)c1CC [Compound I-25] | ≤ 1000 | ≤ 1000 | ≤ 1000
4 | CCc1c(C)n(C)c2c(C#N)cnn2c1=O [Compound I-29] | 1000 to 10000 | ≥ 50000 | 1000 to 10000
5 | CCc1c(C(=O)NC)[nH]c2c(C#N)cnn2c1=O [Compound I-49] | 1000 to 10000 | 1000 to 10000 | ≤ 1000
